Results on 42 molecules are retold here after patent US20170253607A1, “LONG-ACTING HIV PROTEASE INHIBITOR” (Shionogi & Co., Ltd., priority 2014, published 2017).

The target in this assay is HIV-1 PR (Human immunodeficiency virus type 1 group M subtype B, UniProt P04585). Briefly: HIV-protease inhibitory activity assay (FRET peptide substrate). The format is biochemical. The note with it: Test Example 1. A digest of the protocol: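 HIV-1 PR (0.83 ng) preincubated with compounds 20 min at room temperature in 0.1 mol/L NaAc, 0.5 mol/L NaCl, 1 mmol/L EDTA, 1 mmol/L DTT, 0.05% Tween 20, pH 4.8. Cleavage of HiLyte Fluor 488/QXL 520 FRET peptide (2 μmol/L) read after 60 minutes at 485/535 nm; IC50 from four-parameter logistic fit.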
By IC50 is commonly meant the concentration at which inhibition is half-maximal. The low end stands for greater potency, the high end for weaker potency. The molecule `COc1ccc(S(=O)(=O)N(CC(C)C)CC(O)C(Cc2ccc(OC3CCCN(c4ccc(C#N)cc4-c4sc5c(c4C(=O)O)CC(C)(C)CC5)C3)cc2)NC(=O)OC2COC3(C)OCCC23)cc1` (stereo not drawn) [Compound I-332] came in with an IC50 of 7.39 nM. To `COc1ccc(S(=O)(=O)N(CC(C)C)CC(O)C(Cc2ccc(OCC3CCCN3c3ccc(C#N)cc3-c3sc4c(c3C(=O)O)CC(C)(C)CC4)cc2)NC(=O)OC2COC3(C)OCCC23)cc1` (stereo not drawn) [Compound I-333] belongs 11 nM. The molecule `COc1ccc(S(=O)(=O)N(CC(C)C)CC(O)C(Cc2ccc(NCCCc3sc4c(c3C(=O)O)CC(C)(C)CC4)cc2)NC(=O)OC2COC3(C)OCCC23)cc1` (stereo not drawn) [Compound I-335] returned a 50% inhibitory concentration (IC50) of 1.81 nM. This IC50 lies about 6.1-fold lower than the previous one. To `COc1ccc(S(=O)(=O)N(CC(C)C)CC(O)C(Cc2ccc(N(C)CCCc3sc4c(c3C(=O)O)CC(C)(C)CC4)cc2)NC(=O)OC2COC3(C)OCCC23)cc1` (stereo not drawn) [Compound I-336] belongs 2.13 nM; to `COc1ccc(S(=O)(=O)N(CC(C)C)CC(O)C(Cc2ccc(N(Cc3ccccc3-c3sc4c(c3C(=O)O)CC(C)(C)CC4)C(C)=O)cc2)NC(=O)OC2COC3(C)OCCC23)cc1` (stereo not drawn) [Compound I-339], 1.83 nM.

Turning to `COc1ccc(S(=O)(=O)N(CC(C)C)CC(O)C(Cc2ccc(NCC3(c4ccc(-c5sc6c(c5C(=O)O)CC(C)(C)CC6)cc4)CCCC3)cc2)NC(=O)OC2COC3(C)OCCC23)cc1` (stereo not drawn) [Compound I-340], half-maximal inhibition (IC50) required 5.6 nM. To `COc1ccc(S(=O)(=O)N(CC(C)C)CC(O)C(Cc2ccc(CN(C)C3CCCCC3c3sc4c(c3C(=O)O)CC(C)(C)CC4)cc2)NC(=O)OC2COC3(C)OCCC23)cc1` (stereo not drawn) [Compound I-341] belongs 1.89 nM; to `COc1ccc(S(=O)(=O)N(CC(C)C)CC(O)C(Cc2ccc(CN(C)C3CCCCC3c3sc4c(c3C(=O)O)CC(C)(C)CC4)cc2)NC(=O)OC2COC3(C)OCCC23)cc1` (stereo not drawn) [Compound I-342], 2.06 nM. To `COc1ccc(S(=O)(=O)N(CC(C)C)CC(O)C(Cc2ccc(OCc3ccccc3-c3c(OCc4ccccc4)noc3C(=O)O)cc2)NC(=O)OC2COC3(C)OCCC23)cc1` (stereo not drawn) [Compound I-344] belongs 2.83 nM. In the case of `COc1ccc(S(=O)(=O)N(CC(C)C)CC(O)C(Cc2ccc(CN(C)C3CCCCC3c3sc4c(c3C(=O)O)CC(C)(C)CC4)cc2)NC(=O)OC2COC3(C)OCCC23)cc1` (stereo not drawn) [Compound I-345], the half-inhibitory concentration (IC50) turned out to be 1.82 nM. To `COc1ccc(S(=O)(=O)N(CC(C)C)CC(O)C(Cc2ccc(N3CCC(Oc4ccc(-c5sc6c(c5C(=O)O)CC(C)(C)CC6)cc4)C3)cc2)NC(=O)OC2COC3(C)OCCC23)cc1` (stereo not drawn) [Compound I-350] belongs 5.32 nM.

`COc1ccc(S(=O)(=O)N(CC(C)C)CC(O)C(Cc2ccc(OC3CCN(c4ncccc4-c4sc5c(c4C(=O)O)CC(C)(C)CC5)C3)cc2)NC(=O)OC2COC3(C)OCCC23)cc1` (stereo not drawn) [Compound I-355] returned an IC50 of 2.35 nM.

For the molecule `COc1ccc(S(=O)(=O)N(CC(C)C)CC(O)C(Cc2ccc(NCc3ccc(-c4c(C(=O)O)sc5c4CC(C)(C)CC5)cc3)cc2)NC(=O)OC2COC3(C)OCCC23)cc1` (stereo not drawn) [Compound I-356], the IC50 turned out to be 3.3 nM. For `COc1ccc(S(=O)(=O)N(CC(C)C)CC(O)C(Cc2ccc(N(C)CC3CCCCC3c3sc4c(c3C(=O)O)CC(C)(C)CC4)cc2)NC(=O)OC2COC3(C)OCCC23)cc1` (stereo not drawn) [Compound I-358], half-maximal inhibition (IC50) was put at 3.89 nM. This IC50 and that of the molecule before are within 1.5-fold of each other. To `COc1ccc(S(=O)(=O)N(CC(C)C)CC(O)C(Cc2ccc(N(C)CC3CCCCC3c3sc4c(c3C(=O)O)CC(C)(C)CC4)cc2)NC(=O)OC2COC3(C)OCCC23)cc1` (stereo not drawn) [Compound I-359] belongs 3.77 nM. Take `COc1ccc(S(=O)(=O)N(CC(C)C)CC(O)C(Cc2ccc(OC3CN(c4cccc(-c5sc6c(c5C(=O)O)CC(C)(C)CC6)c4)C3)cc2)NC(=O)OC2COC3(C)OCCC23)cc1` (stereo not drawn) [Compound I-360]: the IC50 is 4.54 nM.

`COc1ccc(S(=O)(=O)N(CC(C)C)CC(O)C(Cc2ccc(OC3CN(c4ccc(-c5sc6c(c5C(=O)O)CC(C)(C)CC6)cc4)C3)cc2)NC(=O)OC2COC3(C)OCCC23)cc1` (stereo not drawn) [Compound I-361] registered an IC50 of 6.22 nM. Take `COc1ccc(S(=O)(=O)N(CC(C)C)CC(O)C(Cc2ccc(OC3CC(N(C)c4ccccc4-c4sc5c(c4C(=O)O)CC(C)(C)CC5)C3)cc2)NC(=O)OC2COC3(C)OCCC23)cc1` (stereo not drawn) [Compound I-364]: the IC50 stood at 5.39 nM. With `COc1ccc(S(=O)(=O)N(CC2CCCC2)CC(O)C(Cc2ccc(OCCn3nc4c(c3C(=O)O)CC(C)(C)CC4)cc2)NC(=O)OC2COC3(C)OCCC23)cc1` (stereo not drawn) [Compound I-366], the IC50 was determined as 2.72 nM. For the molecule `COc1ccc(S(=O)(=O)N(CC(C)C)CC(O)C(Cc2ccc(NCc3ccccc3-c3sc4c(c3C(=O)O)C(=O)CCC4)cc2)NC(=O)OC2COC3(C)OCCC23)cc1` (stereo not drawn) [Compound I-367], inhibition was half-maximal at 2.61 nM (IC50). As to `COc1ccc(S(=O)(=O)N(CC(C)C)CC(O)C(Cc2ccc(NCc3ccccc3-c3nc4n(c3C(=O)O)CCCC4)cc2)NC(=O)OC2COC3(C)OCCC23)cc1` (stereo not drawn) [Compound I-368], the IC50 worked out at 2.11 nM. To `COc1ccc(S(=O)(=O)N(CC(C)C)CC(O)C(Cc2ccc(NCC3(c4ccc(-c5sc6c(c5C(=O)O)CC(C)(C)CC6)cc4)CCCCC3)cc2)NC(=O)OC2COC3(C)OCCC23)cc1` (stereo not drawn) [Compound I-369] belongs 15.8 nM. To `COc1ccc(S(=O)(=O)N(CC(C)C)CC(O)C(Cc2ccc(N3CC(Oc4ccc(-c5sc6c(c5C(=O)O)CC(C)(C)CC6)cc4)C3)cc2)NC(=O)OC2COC3(C)OCCC23)cc1` (stereo not drawn) [Compound I-370] belongs 5.02 nM; to `COc1ccc(S(=O)(=O)N(CC(C)C)CC(O)C(Cc2ccc(N(C)CC3CCCCC3c3sc4c(c3C(=O)O)CC(C)(C)CC4)cc2)NC(=O)OC2COC3(C)OCCC23)cc1` (stereo not drawn) [Compound I-375], 3.87 nM. Regarding `CCN(C(=O)Nc1ccccc1-c1sc2c(c1C(=O)O)CC(C)(C)CC2)c1ccc(CC(NC(=O)OC2COC3(C)OCCC23)C(O)CN(CC(C)C)S(=O)(=O)c2ccc(OC)cc2)cc1` (stereo not drawn) [Compound I-377], 5.4 nM corresponded to half-maximal inhibition (IC50). To `COc1ccc(S(=O)(=O)N(CC(C)C)CC(O)C(Cc2ccc(NCC3=C(c4sc5c(c4C(=O)O)CC(C)(C)CC5)CCC3)cc2)NC(=O)OC2COC3(C)OCCC23)cc1` (stereo not drawn) [Compound I-381] belongs 4.69 nM.

As for `COc1ccc(S(=O)(=O)N(CC(C)C)CC(O)C(Cc2ccc(OC3CC(N(C)c4ccccc4-c4sc5c(c4C(=O)O)CC(C)(C)CC5)C3)cc2)NC(=O)OC2COC3(C)OCCC23)cc1` (stereo not drawn) [Compound I-382], 7.26 nM corresponded to half-maximal inhibition (IC50). In the case of `COc1ccc(S(=O)(=O)N(CC(C)C)CC(O)C(Cc2ccc(NC(C)c3ccccc3-c3sc4c(c3C(=O)O)CC(C)(C)CC4)cc2)NC(=O)OC2COC3(C)OCCC23)cc1` (stereo not drawn) [Compound I-383], inhibition was half-maximal at 6.47 nM (IC50). `COc1ccc(S(=O)(=O)N(CC(C)C)CC(O)C(Cc2ccc(OCC3=C(c4sc5c(c4C(=O)O)CC(C)(C)CC5)COC3)cc2)NC(=O)OC2COC3(C)OCCC23)cc1` (stereo not drawn) [Compound I-385] registered a half-maximal inhibitory concentration (IC50) of 1.25 nM. This IC50 is about 5.2-fold lower than that of the molecule before. To `COc1ccc(S(=O)(=O)N(CC(C)C)CC(O)C(Cc2ccc(CN3CCc4c(cccc4-c4sc5c(c4C(=O)O)CC(C)(C)CC5)C3)cc2)NC(=O)OC2COC3(C)OCCC23)cc1` (stereo not drawn) [Compound I-388] belongs 1.53 nM. In the case of `COc1ccc(S(=O)(=O)N(CC(C)C)CC(O)C(Cc2ccc(N3CCN(c4ccccc4-c4sc5c(c4C(=O)O)CC(C)(C)CC5)C3=O)cc2)NC(=O)OC2COC3(C)OCCC23)cc1` (stereo not drawn) [Compound I-390], the midpoint of inhibition, the IC50, lay at 1.84 nM.

In the case of `COc1ccc(S(=O)(=O)N(CC(C)C)CC(O)C(Cc2ccc(NCc3ccccc3-c3ccc4c(c3C(=O)O)CC(C)(C)CC4)cc2)NC(=O)OC2COC3(C)OCCC23)cc1` (stereo not drawn) [Compound I-392], it took 2.4 nM to reach half-maximal inhibition (IC50). To `COc1ccc(S(=O)(=O)N(CC(C)C)CC(O)C(Cc2ccc(NCC3(c4cccc(-c5sc6c(c5C(=O)O)CC(C)(C)CC6)c4)CCCC3)cc2)NC(=O)OC2COC3(C)OCCC23)cc1` (stereo not drawn) [Compound I-393] belongs 14.5 nM; to `COc1ccc(S(=O)(=O)N(CC(C)C)CC(O)C(Cc2ccc(OCC3COCC3c3sc4c(c3C(=O)O)CC(C)(C)CC4)cc2)NC(=O)OC2COC3(C)OCCC23)cc1` (stereo not drawn) [Compound I-394], 1.64 nM. Take `COc1ccc(S(=O)(=O)N(CC(C)C)CC(O)C(Cc2ccc(OCC3COCC3c3sc4c(c3C(=O)O)CC(C)(C)CC4)cc2)NC(=O)OC2COC3(C)OCCC23)cc1` (stereo not drawn) [Compound I-395]: the 50% inhibitory concentration (IC50) is 1.86 nM. To `COc1ccc(S(=O)(=O)N(CC(C)C)CC(O)C(Cc2ccc(NCc3ccccc3C(=O)Nc3sc4c(c3C(=O)O)CC(C)(C)CC4)cc2)NC(=O)OC2COC3(C)OCCC23)cc1` (stereo not drawn) [Compound I-397] belongs 2.64 nM. As for `COc1ccc(S(=O)(=O)N(CC(C)C)CC(O)C(Cc2ccc(N(C)CC3COCCC3c3sc4c(c3C(=O)O)CC(C)(C)CC4)cc2)NC(=O)OC2COC3(C)OCCC23)cc1` (stereo not drawn) [Compound I-400], 1.69 nM corresponded to half-maximal inhibition (IC50). To `COc1ccc(S(=O)(=O)N(CC(C)C)CC(O)C(Cc2ccc(N(C)CC3COCCC3c3sc4c(c3C(=O)O)CC(C)(C)CC4)cc2)NC(=O)OC2COC3(C)OCCC23)cc1` (stereo not drawn) [Compound I-401] belongs 1.77 nM; to `COc1ccc(S(=O)(=O)N(CC(C)C)CC(O)C(Cc2ccc(NCC3=C(c4sc5c(c4C(=O)O)CC(C)(C)CC5)CN(C(=O)O)C3)cc2)NC(=O)OC2COC3(C)OCCC23)cc1` (stereo not drawn) [Compound I-402], 1.89 nM; to `COc1ccc(S(=O)(=O)N(CC(C)C)CC(O)C(Cc2ccc(NCC3=C(c4sc5c(c4C(=O)O)CC(C)(C)CC5)CCN(C)C3)cc2)NC(=O)OC2COC3(C)OCCC23)cc1` (stereo not drawn) [Compound I-403], 2.3 nM. To `COc1ccc(S(=O)(=O)N(CC(C)C)CC(O)C(Cc2ccc(N(C)C3Cc4cccc(-c5sc6c(c5C(=O)O)CC(C)(C)CC6)c4C3)cc2)NC(=O)OC2COC3(C)OCCC23)cc1` (stereo not drawn) [Compound I-404] belongs 1.88 nM.

The molecule `COC(=O)c1ccc(CNc2ccc(CC(NC(=O)OC3COC4(C)OCCC34)C(O)CN(CC(C)C)S(=O)(=O)c3ccc(OC)cc3)cc2)c(-c2sc3c(c2C(=O)O)CC(C)(C)CC3)c1` (stereo not drawn) [Compound I-408] yielded an IC50 of 1.8 nM.
